The target in one assay is T1, PDC-109 (Bos taurus, UniProt P02784).
T1 construct: PDC-109, purified from bull seminal plasma, was kindly donated by J.J. Calvete; tissue gift of J.J. Calvete; host or cells: bull seminal plasma
T1 sequence (P02784 26-134): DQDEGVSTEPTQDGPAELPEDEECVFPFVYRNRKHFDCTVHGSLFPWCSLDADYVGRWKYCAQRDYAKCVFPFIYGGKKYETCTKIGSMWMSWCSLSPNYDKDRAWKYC
In words: SPR binding profile and kinetics of PDC-109 on immobilized neo-glycoprobes. More on the design: species or system bovine. The following applies: for derived association (KA) constant / kd / ka: immobilized glycoprobe, PDC-109 6.25 to 100 μM, HBS-P pH 7.4, 25 °C, 1:1 Langmuir model; for kd / ka: 3 to 6 repeat experiments; for ka: 30 μL/min, CV exceeding 50% in particular cases; for binding to PDC-109 in words: immobilized probe, PDC-109 flown over. An excerpt: While the lipid selectivity and kinetics of PDC-109 has been characterized in considerable detail, its interaction with carbohydrate epitopes remains largely uncharted, despite its potential role in sperm reservoir formation in the female genital tract. We have therefore performed SPR experiments with PDC-109 and the most relevant mammalian glycotopes, particularly those containing Fuc epitopes. Once SPR sensor chips were functionalized with the different synthetic glycoprobes and evaluated with specific lectins (Section 2.1.2) they were used to characterize both qualitatively and quantitatively the interaction of PDC-109. For kinetic analysis, several concentrations in the 6.25 to 100 μM range were analyzed and a 1:1 Langmuir binding model was chosen for sensorgram fitting.
Data dispersion was attributable to the unusual sensorgrams observed, reflecting a complex binding event, particularly in the association phase of PDC-109. […] In a conventional, straightforward binding event, the response—i.e., the signal rise over time, reflecting protein binding to the sensor surface—reaches a constant value once equilibrium is established, and remains so until the protein solution passed over the sensor chip is replaced with buffer, giving way to the spontaneous dissociation process and subsequent surface regeneration.
Binding experiments were performed at 25 °C and 30 μL/min flow rate. […] Sensor surface was regenerated with a 60 μL-injection of specific carbohydrate (10 mM lac, 500 mM αMe-Man, 0.5 M αMe-Fuc, and 10 mM Sia) followed by a 60 μL-injection of NaCl 1 M.
Background: In SPR one partner is held on a chip, and binding of the other changes the refractive index at the surface.

In the next assay the target is Con A (Canavalia ensiformis, UniProt P02866). As to conditions: for ka1: SPR BIAcore 3000, glycoprobe immobilized on CM5 chip, HBS-P pH 7.4 + CaCl2 5 mM, MnCl2 1 mM; for ka1 / kd1 / ka2 / kd2: Con A 2.5-80 nM, bivalent model; for ka1 / kd1: first binding event; for KA1 / kd1 / ka2 / kd2: SPR; for KA1: affinity constant of first event, KA1 = ka1/kd1; for kd1 / ka2 / kd2: immobilized glycoprobe; for ka2 / kd2: second binding event. As for the experimental part:
Subsequently, glycoprobes displaying mannobioses only differing in their glycosidic linkage (Man-α1,2-Man, Man-α1,3-Man and Man-α1,6-Man) were immobilized on a sensor chip and their interaction with concanavalin A (Con A) was studied. Con A is a relatively complex lectin, organized as a β-barrel-like tetramer at pH > 7, each dimer subunit (D2 symmetry) with two CRDs situated on opposing faces of the protein. Sensorgrams of different Con A concentrations were recorded and kinetic constants determined by simultaneously fitting the experimental curves to a bivalent kinetic model (Figure 1). This model allows the first and second binding events to be separately described by two sets of rate constants (Table 2).
All SPR experiments were performed in a BIAcore 3000 instrument (GE Healthcare, Uppsala, Sweden) using carboxymethyl-functionalized CM5 or C1 sensor chips and HBS-P (0.01 M HEPES pH 7.4; 0.15 M NaCl; 0.005% v/v surfactant P20) as running buffer, supplemented when necessary with CaCl2 (5 mM) and MnCl2 (1 mM) or other competitive reagents/adjuvants such as bovine serum albumin (BSA), carboxymethyldextran (CMD) or polivinylpirrolidone (PVP). SPR sensorgram analysis and curve fitting were done with the BIAevaluation 4.1.1 sofware package (GE Healthcare, Uppsala, Sweden). In all experiments, specific binding responses were obtained by subtracting from each channel the reference channel response. Moreover, in most cases a double referencing was applied (i.e., reference Fc1 channel plus an internal reference standard, namely buffer injection subtraction).
For all immobilizations, the carboxyl functionalities of the CM5 (or C1) sensor chip surfaces were activated by injecting a mixture of 0.05 M NHS and 0.2 M EDC (1:1 v/v; 50 µL) at 5 µL/min. Then, glycopeptide solutions were passed at 1–2 mg/mL in 10 mM NaOAc for approximately 12 min over the activated surface. For immobilization, pH 4 or pH 6 conditions were used, as required. In the specific case of PDC-109, protein solution was passed at 0.05 µg/µL in 10 mM NaOAc pH 4 over the activated surface. Afterwards, unreacted groups on all chip surfaces were blocked with ethanolamine-HCl (1 M; pH 8.5; 60 µL) or H2O (60 µL). The difference, in resonance units (RU), between readings after surface activation and final response was converted into amount of immobilized glycopeptide (0.981 RU~1 pg/mm^2 for glycopeptides, 1 RU = 1 pg/mm^2 for proteins; see legend Table 6).
All kinetic measurements were carried out by running a manually programmed sequence of binding experiments using several protein range concentrations and two flow rates. Regeneration of the sensor surface was accomplished in a specific-manner by injecting the complementary carbohydrate (10 mM lac, 100–500 mM αMe-Man, 0.5 M αMe-Fuc or L-Fuc, 0.5 M GlcNAc, 0.5 M Glc, and 10 mM Sia). Alternatively, other procedures such as glycoprotein solutions (e.g., fetuin at 2–5 g/L), low pH-buffers (e.g., 10 mM glycine pH 1.5–2.5), high salt (e.g., 1 M NaCl), high pH or specific chemicals were also used to break the interaction.
For the evaluation of the sensor chips, binding experiments and kinetic studies were carried out with the various glycoprobes and specific well-characterized lectins (ECA, Con A, LTA, UEA-I, MAA, and SNA). Several concentrations of each lectin were prepared by serial 2/3-fold dilutions of the most concentrated sample in running buffer supplemented with CaCl2 (5 mM) and MnCl2 (1 mM). Thus, concentrations varied from 66 nM to 2.5 µM for ECA; from 2.5 to 80 nM for Con A; from 31.25 nM to 1 µM for LTA and UEA-I; from 250 nM to 1.9 µM for MAA and from 74 to 563 nM for SNA. Analyses were performed at 20 µL/min and kinetic studies at 10 and 40 μL/min. After lectin injection, the sample solution was replaced by running buffer and the dissociation phase was monitored for 3–6 min.

The target of another assay is SNA (Sambucus nigra, UniProt Q41358).
SNA, sequence (Q41358 309-570 limits assumed): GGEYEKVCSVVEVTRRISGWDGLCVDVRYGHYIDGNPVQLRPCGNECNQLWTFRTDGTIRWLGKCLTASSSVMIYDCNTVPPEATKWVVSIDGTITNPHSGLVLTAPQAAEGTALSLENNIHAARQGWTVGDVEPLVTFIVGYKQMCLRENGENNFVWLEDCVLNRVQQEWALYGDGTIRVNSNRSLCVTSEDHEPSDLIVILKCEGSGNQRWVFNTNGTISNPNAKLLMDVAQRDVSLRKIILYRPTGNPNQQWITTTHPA
SNA, sequence (Q41358 29-290 partner limits assumed): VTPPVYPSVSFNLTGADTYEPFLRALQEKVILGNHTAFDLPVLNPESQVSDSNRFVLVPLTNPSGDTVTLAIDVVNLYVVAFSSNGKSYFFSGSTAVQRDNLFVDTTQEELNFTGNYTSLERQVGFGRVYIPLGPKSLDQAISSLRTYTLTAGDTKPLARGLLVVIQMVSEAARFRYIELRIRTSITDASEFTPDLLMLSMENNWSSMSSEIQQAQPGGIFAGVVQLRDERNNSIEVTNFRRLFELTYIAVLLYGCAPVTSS

Data on twelve substances can be found in publication PMC5979539 (International Journal of Molecular Sciences, 2018).

For “Fuc-α1,3-GlcNAc-Aoa(m)-GFKKG [neo-glycoprobe: Fuc-α1,3-GlcNAc oxime-ligated to the peptide module N[Me]-O-Aoa-GFKKG]”, at PDC-109, the “derived association (KA) constant” value worked out at 237000 M⁻¹, the kd amounted to 0.00165 s⁻¹ and the ka was 763 M⁻¹ s⁻¹.

For the substance “Fuc-α1,4-GlcNAc-Aoa(m)-GFKKG [neo-glycoprobe: Fuc-α1,4-GlcNAc oxime-ligated to the peptide module N[Me]-O-Aoa-GFKKG]”, at PDC-109, the kd was found to be 8.83e-05 s⁻¹, the ka worked out at 2910 M⁻¹ s⁻¹ and the “binding to PDC-109 in words” value was “highest binding affinity”.

“Fuc-α1,6-GlcNAc-Aoa(m)-GFKKG [neo-glycoprobe: Fuc-α1,6-GlcNAc oxime-ligated to the peptide module N[Me]-O-Aoa-GFKKG]”: on PDC-109, the “derived association (KA) constant” value was found to be 73100 M⁻¹, the kd turned out to be 0.00345 s⁻¹ and the ka was found to be 645 M⁻¹ s⁻¹.

Take “Gal-β1,3-GlcNAc-Aoa(m)-GFKKG [neo-glycoprobe: Gal-β1,3-GlcNAc oxime-ligated to the peptide module N[Me]-O-Aoa-GFKKG]”: on PDC-109, the “derived association (KA) constant” value amounted to 17000 M⁻¹, the kd came to 0.00756 s⁻¹ and the ka worked out at 128 M⁻¹ s⁻¹.

Regarding “Gal-β1,4-GlcNAc-Aoa(m)-GFKKG [neo-glycoprobe: Gal-β1,4-GlcNAc oxime-ligated to the peptide module N[Me]-O-Aoa-GFKKG]”, on PDC-109, the “derived association (KA) constant” value came out at 10000 M⁻¹, the kd was found to be 0.0086 s⁻¹ and the ka worked out at 86.2 M⁻¹ s⁻¹.

For the substance “Gal-β1,6-GlcNAc-Aoa(m)-GFKKG [neo-glycoprobe: Gal-β1,6-GlcNAc oxime-ligated to the peptide module N[Me]-O-Aoa-GFKKG]”, on PDC-109, the “derived association (KA) constant” value was 22700 M⁻¹, the kd is 0.0208 s⁻¹ and the ka amounted to 472 M⁻¹ s⁻¹.

As for “Man-α1,2-Man-Aoa(m)-GFKKG [neo-glycoprobe: Man-α1,2-Man oxime-ligated to the peptide module N[Me]-O-Aoa-GFKKG]”, on Con A, the ka1 came out at 16800 M⁻¹ s⁻¹, the KA1 worked out at 126000 M⁻¹, the kd1 was found to be 0.133 s⁻¹ and the ka2 is reported as 2.88 × 10^−2 RU^−1 s^−1. On Con A, the kd2 amounted to 0.0706 s⁻¹. Further, at PDC-109, the “derived association (KA) constant” value was found to be 78700 M⁻¹, the kd amounted to 0.013 s⁻¹ and the ka was determined as 1020 M⁻¹ s⁻¹.

Take “Man-α1,3-Man-Aoa(m)-GFKKG [neo-glycoprobe: Man-α1,3-Man oxime-ligated to the peptide module N[Me]-O-Aoa-GFKKG]”: on Con A, the ka1 stood at 22800 M⁻¹ s⁻¹, the KA1 stood at 345000 M⁻¹, the kd1 came out at 0.0661 s⁻¹ and the ka2 is listed as 3.78 × 10^−3 RU^−1 s^−1. Moreover, the kd2 on Con A came out at 0.0629 s⁻¹. Further, on PDC-109, the “derived association (KA) constant” value was determined as 87700 M⁻¹, the kd came to 0.0044 s⁻¹ and the ka turned out to be 386 M⁻¹ s⁻¹.

Consider “Man-α1,6-Man-Aoa(m)-GFKKG [neo-glycoprobe: Man-α1,6-Man oxime-ligated to the peptide module N[Me]-O-Aoa-GFKKG]”, for which, at Con A, the ka1 was found to be 8910 M⁻¹ s⁻¹, the KA1 is 308000 M⁻¹, the kd1 was determined as 0.0289 s⁻¹ and the ka2 is reported as 7.15 × 10^−4 RU^−1 s^−1. At Con A, the kd2 was determined as 0.019 s⁻¹. Also, at PDC-109, the “derived association (KA) constant” value is 23800 M⁻¹, the kd turned out to be 0.0173 s⁻¹ and the ka was determined as 410 M⁻¹ s⁻¹.

As for “N[Me]-O-Aoa-GFKKG-amide [peptide module for oxime ligation]”, the “binding to PDC-109 in words” value at PDC-109 is “undesirable, non-specific binding”.

“Neu5Ac-α2,3/6-Gal-β1,4-Glc-N[Me]-O-Aoa-GFKKG-amide [Neu5Ac-α2,3/6-Gal-β1,4-Glc-Aoa(m)-GFKKG, neo-glycoprobe: Neu5Ac-α2,3/6-Gal-β1,4-Glc oxime-ligated to the peptide module N[Me]-O-Aoa-GFKKG]”: at PDC-109, the “derived association (KA) constant” value came out at 27700 M⁻¹, the kd is 0.0081 s⁻¹ and the ka was determined as 2120 M⁻¹ s⁻¹.

Consider “Neu5Ac-α2,6-Gal-β1,4-GlcNAc-N[Me]-O-Aoa-GFKKG-amide [Neu5Ac-α2,6-Gal-β1,4-GlcNAc-Aoa(m)-GFKKG]”, for which, at PDC-109, the “derived association (KA) constant” value came to 166000 M⁻¹, the kd is 0.00253 s⁻¹, the ka is 1880 M⁻¹ s⁻¹ and the “binding to PDC-109 in words” value is recorded as “favored interaction”. Besides, at SNA, the KA is 6.27 × 10^6 M^−^1 and the “carbohydrate specificity of SNA in words” value is recorded as “marked preference”. In addition, the ka on SNA (pH 7.4) was 1.02 × 10^4 M^−^1 s^−^1.
